Results published in US11524950B2, “Treatment of immune-related and inflammatory diseases” (Celgene Corporation, priority 2012, dated 2022).

Tests used:
[1] = tested on: Human umbilical vascular endothelial cells; assay: Human umbilical vascular endothelial cell tube formation assay; assay type: cell-based; details: VEGF-induced; at 10 μM; p<0.05 vs stimulated DMSO control
Method: Human Umbilical Vascular Endothelial Cell Tube Formation Assay: Compounds were tested in the growth factor-induced HUVEC tube formation assay. The tube formation plates were incubated at 37° C. for 30 minutes for matrigel to polymerize. The HUVECs were starved in 0.1% BSA basal EBM2 medium for 5 hours after washing with the same medium 3 times. The cells were trypsinized and centrifuged. Then 25 μL of 4× serially diluted compounds (10, 1, 0.1, 0.01, 0.001, 0.0001, 0.00001 μM) were added in duplicate with 50 μL of 2×10^4 cells/well to tube formation plates coated with matrigel. […] of 4×VEGF (final concentration=25 ng/mL) or bFGF (final concentration=10 ng/mL) were added to the plates. The cells were then incubated overnight (˜18 hours) at 37° C. in a humidified incubator. The tubule webs were stained with calcein AM at […] in 2% FBS/HBSS for 30 minutes and images taken by fluorescence microscopy. The tubules were quantified by the MetaMorph tube formation software program for tube area and tube length.
The percentage inhibition of cell proliferation, tube formation, migration, and invasion was calculated by subtracting the result for unstimulated DMSO control from test sample results, averaging all replicates, and normalizing to the growth factor-stimulated DMSO control (0% inhibition). The IC50 values were calculated by using GraphPad Prism 5.0.

[2] = tested on: IRF4, BLIMP1, XBP1, PAX5, IgJ; assay: B and plasma cell transcription factor gene expression (RT-PCR), normal B cell differentiation culture; assay type: cell-based, human
Method: Differentiated B cells (see section 8.2.3) were harvested for total ribonucleic acid (RNA) preparation with a Qiacube RNA extraction instrument (Qiagen, Valencia, Calif.) using QIAGEN RNeasy mini spin-column kits. Purified RNA was reverse transcribed into cDNA with thermal cycler [MJ Research; Inc., St. Bruno, Quebec, Canada) using a reverse-transcriptase kit (Applied Biosystems). The gene expression assay was carried out using 7500 RT-PCR system (Applied Biosystems) in triplicate. A glyceraldehyde 3-phosphate dehydrogenase gene expression assay control was run for each sample and used as a normalization control. For each gene, samples within each experiment were normalized to 0.1% DMSO treatment only for that particular time point.

DBA/2 mice = assay: Bleomycin-induced dermal fibrosis mouse model (regression of established fibrosis); assay type: in vivo; details: 30 mg/kg, PO, QD
Method: DBA/2 mice were used in this study. Eight animals were used per treatment group in the study. Mice were kept in the animal house under standard conditions with food and water ad libidum.
The compound was suspended, not dissolved, in this vehicle. The formulation was homogenized with a Teflon pestle and mortar (Potter-Elvehjem tissue grinder) using a motorized Eberbach tissue homogenizer. The daily drug stock concentration used in these studies was 3 mg/ml.
Bleomycin was obtained from the pharmacy of the University of Erlangen-Nuremberg and freshly prepared once a week. Skin fibrosis was induced in 6-week-old DBA mice by local intracutaneous injections of 100 μl of bleomycin dissolved in 0.9% NaCl, at a concentration of 0.5 mg/ml, every other day in defined areas of 1.5 cm^2 on the upper back.
To evaluate regression of fibrosis, a modified model of bleomycin induced dermal fibrosis was used. Mice were pre-challenged with bleomycin to induce a robust skin fibrosis. One group received treatment with the test compound, while challenge with bleomycin was ongoing for additional three weeks. The outcome of this group was compared to mice challenged with bleomycin for six weeks (prevention of further progression) and to mice challenged with bleomycin for three weeks followed by NaCl for additional three weeks (induction of regression). The following groups were used in the regression study: • Control group: Intradermal injection of NaCl for six weeks. Control treatment consisted of administration of the vehicle. • Untreated bleomycin group 1 (regression): Intradermal injection of bleomycin for three weeks followed by intradermal injections of NaCl for another three weeks. Treatment consisted of administration of the vehicle. […]
Dermal thickness was determined by staining with hematoxylin and eosin and activated fibroblasts by using immunohistochemistry for alpha smooth muscle actin (α-SMA). The dermal thickness, as determined by the modified Rodnan Skin Score, is currently the most common primary outcome in human clinical trials for anti-fibrotic agents in SSc. […] Dermal thickness was analyzed with a Nikon Eclipse 80i microscope (Nikon, Badhoevedorp, The Netherlands) by measuring the maximal distance between the epidermal-dermal junction and the dermal-subcutaneous fat junction at 4 different skin sections in each mouse. […]
For quantification of myofibroblasts, skin sections were deparaffinized and incubated with 5% bovine serum albumin for 60 minutes. Cells positive for α-SMA were detected by incubation with monoclonal anti-α-SMA antibodies (clone 1A4; Sigma-Aldrich, Steinheim, Germany) for 2 hours at room temperature followed by incubation with 3% hydrogen peroxide for 10 minutes. […]

[3] = tested on: CTGF, PAI-1, COL1A1, TGFB1; assay: Tsk-1 mouse skin TGF-β pathway gene overexpression (qRT-PCR); assay type: in vivo; details: 30 mg/kg
Excerpt: Next, to examine the effect of the compound on the overexpression of TGF-β pathway genes in Tsk-1 mouse skin, qRT-PCR was used to measure mRNA levels for six genes: CTGF, PAI-1, COL1A1, α-smooth muscle actin (ALPHA SMA), cartilage oligomeric protein 1 (COMP), and TGFB1. Overexpression was defined as the excess mRNA levels observed in Tsk-1 mouse skin compared to normal pa/pa mouse skin. […] PAI-1 and TGFB1 gene overexpression was not inhibited by the compound.

[4] = Tsk-1 vs pa/pa mouse skin mRNA, p≤0.001

| Structure (SMILES) | tube area and length [1] | B cell transcription factor PAX5 [2] | expression of plasma cell transcription factor BLIMP1 [2] | expression of plasma cell transcription factor RF4 [2] | expression of plasma cell transcription factor XBP1 [2] | BLIMP-1 gene expression ([2]; day 7, 20 nM, qRT-PCR) | IRF-4 gene expression ([2]; day 7, 20 nM, qRT-PCR) | IgJ gene expression ([2]; day 7, 20 nM, qRT-PCR) | XBP-1 gene expression ([2]; day 7, 20 nM, qRT-PCR) | dermal thickening (DBA/2 mice) | numbers of myofibroblasts (DBA/2 mice) | PAI-1 gene overexpression [3] | TGFB1 gene overexpression [3] | reduction of overexpression of COL1A1 [3, 4] [%] | reduction of overexpression of CTGF [3, 4] [%] |
| --- | --- | --- | --- | --- | --- | --- | --- | --- | --- | --- | --- | --- | --- | --- | --- |
| O=C1CC[C@@H](N2Cc3c(OCc4ccc(CN5CCOCC5)cc4)cccc3C2=O)C(=O)N1 [R-enantiomer, (R)-3-[4-(4-morphlin-4-ylmethylbenzyloxy)-1-oxo-1,3-dihydro-isoindo-2-yl]piperidine-2,6-dione] | significant inhibition | – | – | – | – | – | – | – | – | – | – | – | – | – | – |
| O=C1CC[C@H](N2Cc3c(OCc4ccc(CN5CCOCC5)cc4)cccc3C2=O)C(=O)N1 [Test compound, (S)-3-[4-(4-morphlin-4-ylmethylbenzyloxy)-1-oxo-1,3-dihydro-isoindo-2-yl]piperidine-2,6-dione] | – | enhanced | dose-dependently inhibited | dose-dependently inhibited | dose-dependently inhibited | 14.3 % of control | 20.5 % of control | 31.5 % of control | 15.1 % of control | no effect | did not have an effect | not inhibited | not inhibited | 129 | 79 |
